Results as given in patent publication US8633195B1, “Method of inhibiting apolipoprotein-E expression comprising administering a triarylmethyl amine compound” (Fresno California State University, priority 2012, dated 2014).

Test system: apoE expression in human CCF-STTG1 astrocytoma cells
Assay: ApoE ELISA on conditioned medium of human CCF-STTG1 astrocytoma cells
Format: cell-based
Conditions: 10 μM compound, 24 hours
Description: The triarylmethyl amine compounds, including the ones shown in TABLE 1, were tested for biological effects on mammalian cells in an ELISA, an assay well-known in the art. […] The ELISA technique involves immobilizing an apoE-specific capture antibody to a 96-well plate, addition of sample (conditioned medium from astrocytoma cells treated with the compound for 24 hours), and detection of the bound apoE using a second apoE-specific biotinylated antibody and streptavidin-HRP.
The Mabtech ELISA kit detects the presence of three apoE isoforms: apoE2, apoE3, and apoE4.
All triarylmethyl amine compounds listed in Table 1 were individually dissolved in DMSO at a stock concentration of 10 mM and individually tested. For ELISA's, 1.6×10^4 cells/96-well were grown for 1 day in RPMI, followed by a 24 hour equilibration in serum-free Opti-MEM (Life Technologies). Treatments were carried out in quadruplicate with 100 μL of fresh Opti-MEM containing 10 μM of compound or vehicle (0.1% DMSO) for 24 hours. Conditioned medium from these samples were then diluted 2-fold with incubation buffer (PBS+0.05% Tween-20+0.1% BSA) and analyzed with a human apoE HRP ELISA kit (Mabtech) according to the manufacturer's protocol. ApoE concentration in the sample was calculated based on a standard curve derived using known amounts of purified apoE supplied with the kit. The cells in the 96-well plates were used to determine the total cell number using CyQUANT reagent (Life Technologies).
The astrocytoma cells were treated for 24 hours with a 10 μM concentration of each of the individual 37 compounds listed in Table 1.

SMILES	Inhibition Percentage of ApoE Expression [%]
CN(C)C(c1ccccc1)(c1ccccc1)c1ccccc1 [Compound 1]	8
COc1ccc(C(c2ccccc2)(c2ccccc2)N(C)C)cc1 [Compound 16]	35
CCN(CC)C(c1ccccc1)(c1ccccc1)c1ccc(OC)cc1 [Compound 17, Diethyl-[(4-methoxy-phenyl)-diphenyl-methyl]-amine]	17
CN(C)C(c1ccccc1)(c1ccccc1)c1ccc2ccccc2c1 [Compound 28]	35
c1ccc(C(c2ccccc2)(c2ccc3ccccc3c2)N2CCCC2)cc1 [Compound 31, 1-(naphthalen-2-yl-diphenyl-methyl)-pyrrolidine]	49
c1ccc(C(c2ccccc2)(c2ccc3ccccc3c2)N2CCOCC2)cc1 [Compound 33, 4-(Naphthalen-2-yl-diphenyl-methyl)-morpholine]	46
CC(C)CNC(c1ccccc1)(c1ccccc1)c1ccc2ccccc2c1 [Compound 35, isobutyl-(naphthalen-2-yl-diphenyl-methyl)-amine]	50
CCC(C)NC(c1ccccc1)(c1ccccc1)c1ccc2ccccc2c1 (stereo not shown) [Compound 36, sec-butyl-(naphthalen-2-yl-diphenyl-methyl)-amine]	66

Same assay, conditions: 10 μM compound, 24 hours, listed as compound 31

SMILES	Inhibition Percentage of ApoE Expression
c1ccc(C(c2ccccc2)(c2ccc3ccccc3c2)N2CCCC2)cc1 [Compound 31, 1-(naphthalen-2-yl-diphenyl-methyl)-pyrrolidine]	about 49%

Same assay, conditions: 10 μM compound, 24 hours, listed as compound 33

SMILES	Inhibition Percentage of ApoE Expression
c1ccc(C(c2ccccc2)(c2ccc3ccccc3c2)N2CCOCC2)cc1 [Compound 33, 4-(Naphthalen-2-yl-diphenyl-methyl)-morpholine]	about 46%

Same assay, conditions: 10 μM compound, 24 hours, listed as compound 35

SMILES	Inhibition Percentage of ApoE Expression
CC(C)CNC(c1ccccc1)(c1ccccc1)c1ccc2ccccc2c1 [Compound 35, isobutyl-(naphthalen-2-yl-diphenyl-methyl)-amine]	about 50%

Same assay, conditions: 10 μM compound, 24 hours, listed as compound 36

SMILES	Inhibition Percentage of ApoE Expression
CCC(C)NC(c1ccccc1)(c1ccccc1)c1ccc2ccccc2c1 (stereo not shown) [Compound 36, sec-butyl-(naphthalen-2-yl-diphenyl-methyl)-amine]	about 66%

Same assay, conditions: 10 μM compound, 24 hours, normalized to DMSO treated cells

SMILES	ApoE (ng/ml) Normalized for Cell Count and Vehicle Treatment [ng/mL]
CN(C)C(c1ccccc1)(c1ccccc1)c1ccccc1 [Compound 1]	0.92
c1ccc(C(NCC2CCCCC2)(c2ccccc2)c2ccccc2)cc1 [Compound 13, cyclohexylmethyl-trityl-amine]	0.49
COc1ccc(C(c2ccccc2)(c2ccccc2)N(C)C)cc1 [Compound 16]	0.65
CCN(CC)C(c1ccccc1)(c1ccccc1)c1ccc(OC)cc1 [Compound 17, Diethyl-[(4-methoxy-phenyl)-diphenyl-methyl]-amine]	0.83
CN(C)C(c1ccccc1)(c1ccccc1)c1ccc2ccccc2c1 [Compound 28]	0.65
c1ccc(C(c2ccccc2)(c2ccc3ccccc3c2)N2CCCC2)cc1 [Compound 31, 1-(naphthalen-2-yl-diphenyl-methyl)-pyrrolidine]	0.51
c1ccc(C(c2ccccc2)(c2ccc3ccccc3c2)N2CCOCC2)cc1 [Compound 33, 4-(Naphthalen-2-yl-diphenyl-methyl)-morpholine]	0.54
CC(C)CNC(c1ccccc1)(c1ccccc1)c1ccc2ccccc2c1 [Compound 35, isobutyl-(naphthalen-2-yl-diphenyl-methyl)-amine]	0.50
CCC(C)NC(c1ccccc1)(c1ccccc1)c1ccc2ccccc2c1 (stereo not shown) [Compound 36, sec-butyl-(naphthalen-2-yl-diphenyl-methyl)-amine]	0.34

Test system: apoE expression in human HepG2 liver cells
Assay: ApoE ELISA on conditioned medium of human HepG2 liver cells
Format: cell-based
Conditions: 10 μM compound, 24 hours, normalized to DMSO treated wells
Description: To obtain the data shown in Table 4, the human HepG2 liver cells (ATCC, HB-8065 were maintained in RPMI medium (Mediatech) supplemented with 10 mM HEPES, 1 mM sodium pyruvate, 4.5 g/L glucose, 1% penicillin/streptomycin, and 10% bovine growth serum (HyClone) at 37° C. with 5% CO2
Compound Nos. 13, 31, 33, 35 or 36—as listed in Table 1—were individually dissolved in DMSO at a stock concentration of 10 mM and individually tested. For ELISA's, 1.6×10^4 cells/96-well were grown for 1 day in RPMI, followed by a 24 hour equilibration in serum-free Opti-MEM (Life Technologies). Treatments were carried out in quadruplicate with 100 μL of fresh Opti-MEM containing 10 μM of compound or vehicle (0.1% DMSO) for 24 hours. Conditioned medium from these samples were then diluted 2-fold with incubation buffer (PBS+0.05% Tween-20+0.1% BSA) and analyzed with a human apoE HRP ELISA kit (Mabtech) according to the manufacturer's protocol.
A standard curve was used to derive sample apoE concentrations. The cells in the 96-well plates were used to determine the total cell number using CyQUANT reagent (Life Technologies). Sample apoE concentrations were adjusted for total cell number and then normalized to DMSO treated wells. Results for each set of compounds tested in parallel (n=3) were analyzed by a one-tailed t-test.
The data in Table 3 were obtained by using an apoE ELISA assay to monitor human HepG2 cell production of apoE after the HepG2 cells were treated with Compound Nos. 13, 31, 33, 35 and 36, as listed on Table 1. The HepG2 liver cells were treated for 24 hours with a 10 μM concentration of each of Compound Nos. 13, 31, 33, 35 and 36, as listed on Table 1.

SMILES	ApoE (ng/ml) Normalized for Cell Count and Vehicle Treatment [ng/mL]
c1ccc(C(NCC2CCCCC2)(c2ccccc2)c2ccccc2)cc1 [Compound 13, cyclohexylmethyl-trityl-amine]	1.03
c1ccc(C(c2ccccc2)(c2ccc3ccccc3c2)N2CCCC2)cc1 [Compound 31, 1-(naphthalen-2-yl-diphenyl-methyl)-pyrrolidine]	0.64
c1ccc(C(c2ccccc2)(c2ccc3ccccc3c2)N2CCOCC2)cc1 [Compound 33, 4-(Naphthalen-2-yl-diphenyl-methyl)-morpholine]	0.77
CC(C)CNC(c1ccccc1)(c1ccccc1)c1ccc2ccccc2c1 [Compound 35, isobutyl-(naphthalen-2-yl-diphenyl-methyl)-amine]	0.78
CCC(C)NC(c1ccccc1)(c1ccccc1)c1ccc2ccccc2c1 (stereo not shown) [Compound 36, sec-butyl-(naphthalen-2-yl-diphenyl-methyl)-amine]	0.81

Test system: apoE mRNA in CCF-STTG1 human astrocytoma cells
Assay: ApoE mRNA qPCR in CCF-STTG1 astrocytoma cells
Format: cell-based
Design: unit not given here
Conditions: 24 hours in OptiMEM, HPRT1 and β-actin as housekeeping genes
Description: (§1) Quantitative reverse transcription polymerase chain reaction (qPCR) is a laboratory technique used to amplify and quantify the steady-state levels of apoE messenger RNA (mRNA) by converting the copy DNA (cDNA). The targeted DNA molecule quantity can be determined as a relative amount when normalized to housekeeping genes. For qPCR, reverse transcription is used to quantify the amount of mRNA produced through the balance between transcription rate and degradation rates. The amount of mRNA available is the one factor which can affect the overall protein expression. Quantification of the cDNA produced during reverse transcription of the mRNA may be accomplished by detecting the fluorescent markers, such as fluorophores, that selectively hybridize with the DNA target.
(§2) The CCF-STTG1 (ATCC, CRL-1718) human astrocytoma cells were treated with one of the selected triarylmethyl amine compounds for 24 hours in OptiMEM. The selected triarylmethyl amine compounds were individually dissolved in DMSO at a stock concentration of 10 mM and individually tested. Total RNA was extracted using the RNeasy Plus Mini Kit (Qiagen). Genomic DNA (gDNA) was removed by centrifugation through gDNA eliminator spin columns included with the kit. Samples of total RNA were reverse transcribed following instructions in the Superscript III first strand synthesis kit (Life Technologies). ApoE, HPRT1, and β-actin cDNA levels were quantified by TaqMan multiplex quantitative PCR using a CFX96 Real-Time PCR Detection System (BioRad). Reactions were carried out with SensiMix II Probe Master Mix (Bioline) in a 20 μL total volume containing 5-30 ng of cDNA template. Fluorescent labels and primer/probe concentrations were as follows: apoE (5′-FAM, 600 nM/300 nM), HPRT1 (5′-TEX-615, 100 nM/25 nM), and β-actin (5′-Cy5, 100 nM/25 nM). ZEN double quenched probes (Integrated DNA technologies) were used for all apoE reactions. The reactions were performed in triplicate and the results were analyzed using qbasePLUS (Biogazelle) with HPRT1 and β-actin as housekeeping genes.

SMILES	ApoE (ng/ml) Normalized for Cell Count and Vehicle Treatment
c1ccc(C(NCC2CCCCC2)(c2ccccc2)c2ccccc2)cc1 [Compound 13, cyclohexylmethyl-trityl-amine]	1.10
c1ccc(C(c2ccccc2)(c2ccc3ccccc3c2)N2CCCC2)cc1 [Compound 31, 1-(naphthalen-2-yl-diphenyl-methyl)-pyrrolidine]	0.86
c1ccc(C(c2ccccc2)(c2ccc3ccccc3c2)N2CCOCC2)cc1 [Compound 33, 4-(Naphthalen-2-yl-diphenyl-methyl)-morpholine]	0.88
CC(C)CNC(c1ccccc1)(c1ccccc1)c1ccc2ccccc2c1 [Compound 35, isobutyl-(naphthalen-2-yl-diphenyl-methyl)-amine]	0.87
CCC(C)NC(c1ccccc1)(c1ccccc1)c1ccc2ccccc2c1 (stereo not shown) [Compound 36, sec-butyl-(naphthalen-2-yl-diphenyl-methyl)-amine]	0.85

Test system: apoE mRNA in HepG2 human liver cells
Assay: ApoE mRNA qPCR in HepG2 liver cells
Format: cell-based
Conditions: 24 hours in OptiMEM, HPRT1 and β-actin as housekeeping genes
Description: as §1
as §2, with “HepG2” for “CCF-STTG1”, “HB-8065)” for “CRL-1718)”, “liver” for “astrocytoma”, “μl” for “μL”

SMILES	ApoE (ng/ml) Normalized for Cell Count and Vehicle Treatment
c1ccc(C(NCC2CCCCC2)(c2ccccc2)c2ccccc2)cc1 [Compound 13, cyclohexylmethyl-trityl-amine]	1.16 ratio to vehicle
c1ccc(C(c2ccccc2)(c2ccc3ccccc3c2)N2CCCC2)cc1 [Compound 31, 1-(naphthalen-2-yl-diphenyl-methyl)-pyrrolidine]	0.86 ratio to vehicle
c1ccc(C(c2ccccc2)(c2ccc3ccccc3c2)N2CCOCC2)cc1 [Compound 33, 4-(Naphthalen-2-yl-diphenyl-methyl)-morpholine]	1.22 ratio to vehicle
CC(C)CNC(c1ccccc1)(c1ccccc1)c1ccc2ccccc2c1 [Compound 35, isobutyl-(naphthalen-2-yl-diphenyl-methyl)-amine]	1.03 ratio to vehicle
CCC(C)NC(c1ccccc1)(c1ccccc1)c1ccc2ccccc2c1 (stereo not shown) [Compound 36, sec-butyl-(naphthalen-2-yl-diphenyl-methyl)-amine]	0.93 ratio to vehicle

Test system: apoE mRNA in H4 human neuroglioma cells
Assay: ApoE mRNA qPCR in H4 neuroglioma cells
Format: cell-based
Design: unit not given here
Conditions: 24 hours in OptiMEM, HPRT1 and β-actin as housekeeping genes
Description: as §1
The selected triarylmethyl amine compounds were individually dissolved in DMSO at a stock concentration of 10 mM and individually tested. Total RNA was extracted using the RNeasy Plus Mini Kit (Qiagen). Genomic DNA (gDNA) was removed by centrifugation through gDNA eliminator spin columns included with the kit. Samples of total RNA were reverse transcribed following instructions in the Superscript III first strand synthesis kit (Life Technologies). ApoE, HPRT1, and β-actin cDNA levels were quantified by TaqMan multiplex quantitative PCR using a CFX96 Real-Time PCR Detection System (BioRad).

SMILES	ApoE (ng/ml) Cell Count Normalized for Cell Count and Vehicle Treatment
c1ccc(C(c2ccccc2)(c2ccc3ccccc3c2)N2CCOCC2)cc1 [Compound 33, 4-(Naphthalen-2-yl-diphenyl-methyl)-morpholine]	0.59
